Assay results from patent US11572399B2, “Long-acting GIP peptide analogues” (University of Copenhagen, priority 2017, dated 2023).
Peptide text beside a SMILES is read from it. * marks the point of attachment. C16 diacid = O=C(O)CCCCCCCCCCCCCCC(=O)*

Tests used:
human GIP receptor [1] = target: T1, human GIP receptor (Homo sapiens, UniProt P48546); assay: 125I-human GIP competition binding assay, in the presence and absence of 2% HSA; settings: for Fold change HSA (2%)/Casein (0.1%): IC50 (plus HSA)/IC50 (minus HSA); for Binding (+/−HSA) Fold: fold change +HSA/−HSA; for Fold change in affinity, IC50 (plus HSA)/IC50 (minus HSA): presence vs absence of 2% HSA, proxy for albumin binding;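 for all read-outs here: nonspecific binding taken as radioligand bound to untransfected cells, IC50 obtained from nonlinear regression fits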
T1 construct: host or cells: COS-7, transient transfection (calcium phosphate), cDNA in pCMV-Script
T1 sequence (P48546 22-466): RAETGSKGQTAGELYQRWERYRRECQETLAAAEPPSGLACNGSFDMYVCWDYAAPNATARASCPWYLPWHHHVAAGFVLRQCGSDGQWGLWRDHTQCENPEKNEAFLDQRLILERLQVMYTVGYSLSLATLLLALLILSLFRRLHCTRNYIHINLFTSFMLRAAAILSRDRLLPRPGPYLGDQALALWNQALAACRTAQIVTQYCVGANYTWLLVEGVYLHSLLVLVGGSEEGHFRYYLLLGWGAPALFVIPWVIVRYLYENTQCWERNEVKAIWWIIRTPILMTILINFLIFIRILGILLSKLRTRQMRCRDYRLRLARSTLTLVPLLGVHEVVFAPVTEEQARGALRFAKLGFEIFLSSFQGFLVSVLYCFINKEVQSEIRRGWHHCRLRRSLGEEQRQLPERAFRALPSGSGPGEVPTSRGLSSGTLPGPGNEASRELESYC
Description: Transient transfection of the COS-7 cells for cAMP accumulation and competition binding was performed using the calcium phosphate precipitation method with the addition of chloroquine^46-47.
Transient transfected COS-7 cells expressing the human GIP receptor were seeded in clear 96-well plates the day after transfection using a number of cells/well that obtained 5-10% specific binding of the added radioactive ligand. The following day, cells were assayed by competition binding for 3 h at 4° C. using 15-40 pM 125 I-human GIP as well as increasing concentrations unlabeled ligand in 50 mM Hepes buffer (pH 7.2) in the presence and absence of 2% HSA. After incubation, the cells were washed twice in ice-cold binding buffer (+/−2% HSA) and lysed using 200 mM NaOH with 1% SDS for 30 min. Nonspecific binding was determined as the binding of radioactive ligand to untransfected cells.
IC50, EC50, and Ki values were determined by nonlinear regression. […] Ki values were based on the formula for one class of binding sites in homologous competition binding studies and the Cheng Prussoffs formula, respectively (DeBlasi et al., 1989). To determine the HSA binding potential, the fold change in affinity (as determined by IC50) was calculated as IC50 (plus HSA)/IC50 (minus HSA).

human GIP receptor [2] = target: T1, human GIP receptor; assay: cAMP accumulation assay, agonism (ligand alone); assay type: cell-based; settings: COS-7, intrinsic cAMP activity; COS-7 cells; Table 1
human GIP receptor [3] = target: T1, human GIP receptor; assay: cAMP accumulation assay, antagonism of a GIP-mediated cAMP response (50-80% of max); assay type: cell-based; settings: for Fold change of IC50 versus GIP(5-30)NH2: fold change of IC50 from GIP(5-30)NH2
Description: The day after, the cells were washed twice with Hepes buffered saline (HBS) buffer and incubated with HBS and 1 mM 3-isobutyl-1-methylxanthine (IBMX) for 30 min at 37° C. […] The HitHunter™ cAMP XS assay (DiscoveRx) was carried out according to the manufacturer's instructions.

[4] = binding in 0.1% casein (absence of HSA), log value, read-out: logIC50 0.1% casein (converted)
[5] = binding in presence of 2% HSA, read-out: logIC50 2% HSA (converted)
[6] = heterologous competition binding, transiently transfected COS-7 cells expressing the human GIP receptor, read-out: Binding
[7] = transiently transfected COS-7 cells, Table 1 and text, read-out: cAMP antagonism nM (IC50, antagonistic potency)

SMILES | Fold change HSA (2%)/Casein (0.1%) (human GIP receptor [1]) | IC50 (human GIP receptor [1]; [4]) [nM] | IC50 (human GIP receptor [1]; [5]) [nM] | Binding (+/−HSA) Fold (human GIP receptor [1]) | IC50 (human GIP receptor [1]; [6]) [nM] | Emax (human GIP receptor [2]) [%] | Fold change of IC50 versus GIP(5-30)NH2 (human GIP receptor [3]) | Ki (human GIP receptor [1]; presence of 2% HSA) [nM] | Fold change in affinity, IC50 (plus HSA)/IC50 (minus HSA) (human GIP receptor [1]) [fold] | IC50 (human GIP receptor [3]; [7]) [nM] | IC50 (human GIP receptor [3]; antagonism of GIP-mediated cAMP response, COS-7 cells, read-out: cAMP accumulation IC50) [nM] | Ki (human GIP receptor [1]; absence of HSA) [nM] | Ability to antagonize the GIP-mediated cAMP response (in words) (human GIP receptor [3])
CC[C@H](C)[C@H](NC(=O)[C@H](CO)NC(=O)[C@H](Cc1ccc(O)cc1)NC(=O)[C@H](CC(=O)O)NC(=O)[C@H](CO)NC(=O)[C@@H](NC(=O)[C@H](CCCCNC(=O)CCCCCCCCCCCCCCC(=O)O)NC(=O)[C@@H](N)[C@@H](C)O)[C@@H](C)CC)C(=O)N[C@@H](C)C(=O)N[C@@H](CCSC)C(=O)N[C@@H](CC(=O)O)C(=O)N[C@@H](CCCCN)C(=O)N[C@H](C(=O)N[C@@H](Cc1c[nH]cn1)C(=O)N[C@@H](CCC(N)=O)C(=O)N[C@@H](CCC(N)=O)C(=O)N[C@@H](CC(=O)O)C(=O)N[C@@H](Cc1ccccc1)C(=O)N[C@H](C(=O)N[C@@H](CC(N)=O)C(=O)N[C@@H](Cc1c[nH]c2ccccc12)C(=O)N[C@@H](CC(C)C)C(=O)N[C@@H](CC(C)C)C(=O)N[C@@H](C)C(=O)N[C@@H](CCC(N)=O)C(=O)N[C@@H](CCCCN)C(N)=O)C(C)C)[C@@H](C)CC [AT168, [hGIP(5-30)NH2[F6K]-C16diacid/6]] | 2.0 | 50.1 | 100 | 2.3 | 48 | 0 | 5.3 |  |  |  |  |  | 
CC[C@H](C)[C@H](NC(=O)[C@H](CO)NC(=O)[C@H](Cc1ccc(O)cc1)NC(=O)[C@H](CC(=O)O)NC(=O)[C@H](CO)NC(=O)[C@H](CCCCNC(=O)CCCCCCCCCCCCCCC(=O)O)NC(=O)[C@H](Cc1ccccc1)NC(=O)[C@@H](N)[C@@H](C)O)C(=O)N[C@@H](C)C(=O)N[C@@H](CCSC)C(=O)N[C@@H](CC(=O)O)C(=O)N[C@@H](CCCCN)C(=O)N[C@H](C(=O)N[C@@H](Cc1c[nH]cn1)C(=O)N[C@@H](CCC(N)=O)C(=O)N[C@@H](CCC(N)=O)C(=O)N[C@@H](CC(=O)O)C(=O)N[C@@H](Cc1ccccc1)C(=O)N[C@H](C(=O)N[C@@H](CC(N)=O)C(=O)N[C@@H](Cc1c[nH]c2ccccc12)C(=O)N[C@@H](CC(C)C)C(=O)N[C@@H](CC(C)C)C(=O)N[C@@H](C)C(=O)N[C@@H](CCC(N)=O)C(=O)N[C@@H](CCCCN)C(N)=O)C(C)C)[C@@H](C)CC [AT169, [hGIP(5-30)NH2[I7K]-C16diacid/7]] | 5.8 | 31.6 | 166 | 4.8 | 28 | 0 | 3.0 | 126 | 5.8 | 37 |  |  | 
CC[C@H](C)[C@H](NC(=O)[C@H](CO)NC(=O)[C@H](Cc1ccc(O)cc1)NC(=O)[C@H](CC(=O)O)NC(=O)[C@H](CCCCNC(=O)CCCCCCCCCCCCCCC(=O)O)NC(=O)[C@@H](NC(=O)[C@H](Cc1ccccc1)NC(=O)[C@@H](N)[C@@H](C)O)[C@@H](C)CC)C(=O)N[C@@H](C)C(=O)N[C@@H](CCSC)C(=O)N[C@@H](CC(=O)O)C(=O)N[C@@H](CCCCN)C(=O)N[C@H](C(=O)N[C@@H](Cc1c[nH]cn1)C(=O)N[C@@H](CCC(N)=O)C(=O)N[C@@H](CCC(N)=O)C(=O)N[C@@H](CC(=O)O)C(=O)N[C@@H](Cc1ccccc1)C(=O)N[C@H](C(=O)N[C@@H](CC(N)=O)C(=O)N[C@@H](Cc1c[nH]c2ccccc12)C(=O)N[C@@H](CC(C)C)C(=O)N[C@@H](CC(C)C)C(=O)N[C@@H](C)C(=O)N[C@@H](CCC(N)=O)C(=O)N[C@@H](CCCCN)C(N)=O)C(C)C)[C@@H](C)CC [AT170, [hGIP(5-30)NH2[S8K]-C16diacid/8]] (H-TFIK(C16 diacid)DYSIAMDKIHQQDFVNWLLAQK-NH2; N-terminus assumed) | 2.2 | 631 |  | 2.2 |  | 0 | 32.4 | 1300 |  |  |  |  | 
CC[C@H](C)[C@H](NC(=O)[C@H](CO)NC(=O)[C@H](Cc1ccc(O)cc1)NC(=O)[C@H](CCCCNC(=O)CCCCCCCCCCCCCCC(=O)O)NC(=O)[C@H](CO)NC(=O)[C@@H](NC(=O)[C@H](Cc1ccccc1)NC(=O)[C@@H](N)[C@@H](C)O)[C@@H](C)CC)C(=O)N[C@@H](C)C(=O)N[C@@H](CCSC)C(=O)N[C@@H](CC(=O)O)C(=O)N[C@@H](CCCCN)C(=O)N[C@H](C(=O)N[C@@H](Cc1c[nH]cn1)C(=O)N[C@@H](CCC(N)=O)C(=O)N[C@@H](CCC(N)=O)C(=O)N[C@@H](CC(=O)O)C(=O)N[C@@H](Cc1ccccc1)C(=O)N[C@H](C(=O)N[C@@H](CC(N)=O)C(=O)N[C@@H](Cc1c[nH]c2ccccc12)C(=O)N[C@@H](CC(C)C)C(=O)N[C@@H](CC(C)C)C(=O)N[C@@H](C)C(=O)N[C@@H](CCC(N)=O)C(=O)N[C@@H](CCCCN)C(N)=O)C(C)C)[C@@H](C)CC [AT171, [hGIP(5-30)NH2[D9K]-C16diacid/9]] (H-TFISK(C16 diacid)YSIAMDKIHQQDFVNWLLAQK-NH2; N-terminus assumed) | 8.3 | 79.4 |  | 6.3 |  | 0 | 1.1 |  | 8.3 | 35 | 31.6 |  | 
CC[C@H](C)[C@H](NC(=O)[C@H](CO)NC(=O)[C@H](CCCCNC(=O)CCCCCCCCCCCCCCC(=O)O)NC(=O)[C@H](CC(=O)O)NC(=O)[C@H](CO)NC(=O)[C@@H](NC(=O)[C@H](Cc1ccccc1)NC(=O)[C@@H](N)[C@@H](C)O)[C@@H](C)CC)C(=O)N[C@@H](C)C(=O)N[C@@H](CCSC)C(=O)N[C@@H](CC(=O)O)C(=O)N[C@@H](CCCCN)C(=O)N[C@H](C(=O)N[C@@H](Cc1c[nH]cn1)C(=O)N[C@@H](CCC(N)=O)C(=O)N[C@@H](CCC(N)=O)C(=O)N[C@@H](CC(=O)O)C(=O)N[C@@H](Cc1ccccc1)C(=O)N[C@H](C(=O)N[C@@H](CC(N)=O)C(=O)N[C@@H](Cc1c[nH]c2ccccc12)C(=O)N[C@@H](CC(C)C)C(=O)N[C@@H](CC(C)C)C(=O)N[C@@H](C)C(=O)N[C@@H](CCC(N)=O)C(=O)N[C@@H](CCCCN)C(N)=O)C(C)C)[C@@H](C)CC [AT172, [hGIP(5-30)NH2[Y10K]-C16diacid/10]] (H-TFISDK(C16 diacid)SIAMDKIHQQDFVNWLLAQK-NH2; N-terminus assumed) | 3.8 | 251 | 955 | 2.8 | 252 | 0 | 14.1 |  |  |  |  |  | 
CC[C@H](C)[C@H](NC(=O)[C@H](CCCCNC(=O)CCCCCCCCCCCCCCC(=O)O)NC(=O)[C@H](Cc1ccc(O)cc1)NC(=O)[C@H](CC(=O)O)NC(=O)[C@H](CO)NC(=O)[C@@H](NC(=O)[C@H](Cc1ccccc1)NC(=O)[C@@H](N)[C@@H](C)O)[C@@H](C)CC)C(=O)N[C@@H](C)C(=O)N[C@@H](CCSC)C(=O)N[C@@H](CC(=O)O)C(=O)N[C@@H](CCCCN)C(=O)N[C@H](C(=O)N[C@@H](Cc1c[nH]cn1)C(=O)N[C@@H](CCC(N)=O)C(=O)N[C@@H](CCC(N)=O)C(=O)N[C@@H](CC(=O)O)C(=O)N[C@@H](Cc1ccccc1)C(=O)N[C@H](C(=O)N[C@@H](CC(N)=O)C(=O)N[C@@H](Cc1c[nH]c2ccccc12)C(=O)N[C@@H](CC(C)C)C(=O)N[C@@H](CC(C)C)C(=O)N[C@@H](C)C(=O)N[C@@H](CCC(N)=O)C(=O)N[C@@H](CCCCN)C(N)=O)C(C)C)[C@@H](C)CC [AT173, [hGIP(5-30)NH2[S11K]-C16diacid/11]] (H-TFISDYK(C16 diacid)IAMDKIHQQDFVNWLLAQK-NH2; N-terminus assumed) | 7.4 | 7.94 |  | 9.7 | 8 | 0 | 0.3 |  | 7.4 | 10 |  | 6 | highest antagonistic potencies
